Assay results from paper PMC7815742 (Nature Communications, 2021).

B1: mycobacterial homolog of Insig protein (MvINS) (natural protein)
chain: MRLRISEAVVLFLLGAVAALIGDHSHVVTGTTVYHTDAVPFVWSSPFWFPILVGAATASLAELRLHLPAPRDGVTARQALGGVAAVVGTYVTTALVHAFPVVPVTALVCAAAAITWCVLGDGPGAACGVVIAVIGPAVEIALVQLGVFAYHPDSDGLFGVAPFLAPLYFAFGVVAALLGELAVARRPQLGPPVCDTVSRGPGAG
notes: mycobacterial homolog of Insig, MvINS; PDB 4XU4; theoretical protomer mass 23.6 kDa

Key:
(UniProt A0A3A0FWV3) = molecular target: T1, (UniProt A0A3A0FWV3); assay: in vitro [3H]-progesterone reduction assay with purified enzyme, HPLC radiodetection; type: biochemical, Pseudomonadota bacterium
T1 construct: GenBank RIL07334.1, purified wild type

[1] = molecular target: the molecule itself; assay: AUC; sedimentation velocity, 20 °C, 25 mM HEPES pH 7.5, 150 mM NaCl, 5% glycerol, 0.02% DDM, 5 mM DTT; masses calculated with SEDFIT and GUSSI

T1 sequence (A0A3A0FWV3 1-253 limits assumed): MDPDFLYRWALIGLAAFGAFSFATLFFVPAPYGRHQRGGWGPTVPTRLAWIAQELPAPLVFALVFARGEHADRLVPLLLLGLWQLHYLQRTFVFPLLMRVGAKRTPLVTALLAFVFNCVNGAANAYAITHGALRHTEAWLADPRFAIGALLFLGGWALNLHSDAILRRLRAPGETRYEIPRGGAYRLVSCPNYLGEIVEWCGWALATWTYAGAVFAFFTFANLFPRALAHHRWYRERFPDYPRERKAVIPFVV

Molecule | IC50 ((UniProt A0A3A0FWV3)) [nM] | stoichiometry N [1]
C[C@]12C=CC(=O)N[C@@H]1CC[C@@H]1[C@@H]2CC[C@]2(C)[C@@H](C(=O)Nc3cc(C(F)(F)F)ccc3C(F)(F)F)CC[C@@H]12 [Duta, dutasteride] | 1590 ± 190 | 
B1 |  | 3
